Columns and labels:
dengue virus type 2 = experiment: Functional assay to measure dose dependent changes in antiviral-drug inhibitory efficacy against Dengue virus type 2 New Guinea C in Vero E6 miRFP670 cells (cotreated with P-gp inhibitor, CP100356). Cells are treated with antiviral candidates that are serially diluted, following infection, cells are fixed. EC50 is reported via analysis of fluorescence intensity using high-content imager. The …; type: organism-based, Chlorocebus sabaeus, Vero C1008; settings: Dengue virus
Zika virus = experiment: Functional CPE-based assay to measure dose dependent changes in antiviral-drug inhibitory efficacy against Zika virus MR766 in Vero E6 miRFP670 cells. Cells are treated with antiviral candidates that are serially diluted. EC50 is reported via analysis of MTS assay as a readout of CPE. The assay has been performed by KU Leuven.; type: organism-based, Chlorocebus sabaeus, Vero C1008; settings: Zika virus

| Compound | EC50 (dengue virus type 2; Vero C1008) [µM] | EC50 (Zika virus; Vero C1008) [µM] | other results |
| --- | --- | --- | --- |
| NCc1cccc(NC(=O)[C@H](NC(=O)OCc2ccccc2)c2ccc(Br)c(Cl)c2)c1 | 27.9 | > 50 | EC90 (dengue virus type 2; Vero C1008, Baseline response 0 %, Hill slope -1.252, Maximum measured 107.5 %, Maximum response 100 %, Minimum measured 22.965 %, P-gp concentration 500 nM, R squared 0.543, P-gp inhibitor CP100356): > 50 µM; EC90 (Zika virus; Vero C1008, Baseline response 0 %, Hill slope 4.111, Maximum measured 16.618 %, Maximum response 100 %, Minimum measured -5.242 %, R squared 0.822): > 50 µM |
| COc1cccc(-c2ccc([C@@H](NC(=O)OCc3ccccc3)C(=O)Nc3cccc(CN)c3)cc2)c1 | 11.3 | > 50 | EC90 (dengue virus type 2; Vero C1008): 13 µM; EC90 (Zika virus; Vero C1008, Maximum measured 5.224 %, Minimum measured -9.76 %): > 50 µM |
| CCOCCNC(=O)c1cc(Cl)ccc1NS(=O)(=O)c1ccc(Oc2ccccc2Cl)cc1 | 7.26 | > 50 | EC90 (dengue virus type 2; Vero C1008, Baseline response 0 %, EC90 CI (lower) 5.297 uM, EC90 CI (upper) 7.186 uM, Hill slope -13.477, Maximum measured 106.241 %, Maximum response 100 %, Minimum measured 0.021 %, P-gp concentration 500 nM, R squared 0.993, P-gp inhibitor CP100356): 8.55 µM; EC90 (Zika virus; Vero C1008, Maximum measured 1.013 %, Minimum measured -2.996 %): > 50 µM |
| COc1cc(-c2cc(Cl)cc(NC(=O)OCc3ccccc3)c2)c(OC)cc1CC(=O)O | – | > 50 | EC90 (Zika virus; Vero C1008, Baseline response 0 %, Hill slope 0.25, Maximum measured 21.22 %, Maximum response 100 %, Minimum measured 1.079 %, R squared 0.113): > 50 µM |
| CCNC(=O)Nc1cc(Cl)cc(C(=O)Nc2cccc(CN)c2)c1 | > 50 | > 50 | EC90 (dengue virus type 2; Vero C1008, Maximum measured 108.516 %, Minimum measured 107.498 %, P-gp concentration 500 nM, P-gp inhibitor CP100356): > 50 µM; EC90 (Zika virus; Vero C1008, Baseline response 0 %, Hill slope -0.392, Maximum measured 2.06 %, Maximum response 100 %, Minimum measured -2.343 %, R squared 0.131): > 50 µM |
| O=C(O)c1cc(Cl)c(F)cc1S(=O)(=O)Nc1ccc(Oc2ccccc2Cl)cc1 | 25.1 | 39.6 | EC90 (dengue virus type 2; Vero C1008, Baseline response 0 %, Hill slope -22.82, Maximum measured 108.329 %, Maximum response 100 %, Minimum measured 0.118 %, P-gp concentration 500 nM, R squared 0.881, P-gp inhibitor CP100356): 27.7 µM; EC90 (Zika virus; Vero C1008, Baseline response 0 %, EC90 CI (lower) 44.524 uM, EC90 CI (upper) 54.445 uM, Hill slope 10.107, Maximum measured 91.318 %, Maximum response 100 %, Minimum measured 0.941 %, R squared 0.971): 49.2 µM |
| NCc1cccc(NC(=O)[C@@H](NC(=O)OCc2ccccc2)c2ccc(-c3cc4cccnc4s3)cc2)c1 | > 50 | > 50 | EC90 (dengue virus type 2; Vero C1008, Baseline response 0 %, Hill slope -1.813, Maximum measured 108.419 %, Maximum response 100 %, Minimum measured 62.17 %, P-gp concentration 500 nM, R squared 0.703, P-gp inhibitor CP100356): > 50 µM; EC90 (Zika virus; Vero C1008, Baseline response 0 %, Hill slope 2.61, Maximum measured 41.685 %, Maximum response 100 %, Minimum measured -5.482 %, R squared 0.949): > 50 µM |
| O=C(Nc1cc(Cl)cc(-c2cccc3c(C(=O)O)cccc23)c1)OCc1ccccc1 | – | > 50 | EC90 (Zika virus; Vero C1008, Maximum measured -0.778 %, Minimum measured -5.402 %): > 50 µM |
| NCc1cccc(NC(=O)[C@H](NC(=O)OCc2ccccc2)C2CCC(c3ccccc3)CC2)c1 (stereo partly specified) | 6.69 | > 50 | EC90 (dengue virus type 2; Vero C1008, Baseline response 0 %, EC90 CI (lower) 1.121 uM, EC90 CI (upper) 23.089 uM, Hill slope -8.04, Maximum measured 108.249 %, Maximum response 100 %, Minimum measured 2.62 %, P-gp concentration 500 nM, R squared 0.836, P-gp inhibitor CP100356): 8.79 µM; EC90 (Zika virus; Vero C1008, Baseline response 0 %, Hill slope 12.54, Maximum measured 11.506 %, Maximum response 100 %, Minimum measured -10.271 %, R squared 0.094): > 50 µM |
| NCc1cc(Cl)cc(C(=O)Nc2ccc3c(c2)CNC3)c1 | > 50 | > 50 | EC90 (dengue virus type 2; Vero C1008, Maximum measured 110.007 %, Minimum measured 106.028 %, P-gp concentration 500 nM, P-gp inhibitor CP100356): > 50 µM; EC90 (Zika virus; Vero C1008, Maximum measured 0.38 %, Minimum measured -0.268 %): > 50 µM |
